For 41 molecules, IC50 and IC90 results are on record in ChEMBL document CHEMBL4483862, “Open-source discovery of chemical leads for next-generation chemoprotective antimalarials” (2018).

This experiment deals with Plasmodium berghei. Briefly: Luciferase/luciferin-expressing antifolate-resistant parasites were used to infect a culture of HepG2 cells that were pre-incubated with compounds. Infected hepatocytes emit light due to the luciferase reaction. Assay results are presented as the percent inhibition of light emission compared to control. […]. The settings on record: sporozoite; for IC90: read-out: LUCIFERASE INFECTION ASSAY - IC90. Format: functional.

Where [1] appears, read: read-out: LUCIFERASE INFECTION ASSAY - IC50.

On to `CSc1cnc(-n2c(-c3ccc(C)cc3)cs/c2=N\C(=O)c2ccccc2)nc1`, for which the IC90 is above 10 µM. Moreover, the IC50 (PBLUC_HILL_SLOPE 2.11, PBLUC_R_SQUARED 0.145, read-out: LUCIFERASE INFECTION ASSAY - IC50) is above 10 µM.
With `CC(C)OC(=O)Nc1cc(Cl)cc(Cl)c1`, the IC90 is above 13.3 µM. The IC50 under setting [1] is above 13.3 µM.
Regarding `O=C(Nc1ccccc1)c1ccc(CN2C(=O)NC(c3ccccc3)(c3ccccc3)C2=O)cc1`, the IC90 came out at 3.94 µM. For the same molecule, the IC50 (FFLUC_HILL_SLOPE 6.57, FFLUC_R_SQUARED 0.404, PBLUC_HILL_SLOPE 14.6, PBLUC_R_SQUARED 0.481, read-out: LUCIFERASE INFECTION ASSAY - IC50) stood at 3.39 µM.
On to `CNC(=O)NC(=O)c1sc(SC)c(-c2ccon2)c1C`, for which the IC90 was above 10.6 µM. Moreover, the IC50 under setting [1] was above 10.6 µM.
`Cc1ccccc1-c1noc(CN(C2CCCc3ccccc32)S(C)(=O)=O)n1` (configuration not stated): the IC90 was above 8.3 µM. Further, the IC50 (HEPG2TOX_HILL_SLOPE 2, HEPG2TOX_R_SQUARED 0.927, PBLUC_HILL_SLOPE 1.37, PBLUC_R_SQUARED 0.678, read-out: LUCIFERASE INFECTION ASSAY - IC50) amounted to 1.93 µM.
Take `O=C(NCc1cc(C(F)(F)F)cc(C(F)(F)F)c1)c1cc(Cl)cc(Cl)c1`: the IC90 is above 7.93 µM. For the same molecule, the IC50 under setting [1] is above 7.93 µM.
Consider `CC(C)n1ncc2c1N=C(N(C)C)N(c1ccccc1)C2c1ccc(Cl)cc1` (configuration not stated), for which the IC90 was above 10 µM. The IC50 (HEPG2TOX_HILL_SLOPE 1.3, HEPG2TOX_R_SQUARED 0.392, read-out: LUCIFERASE INFECTION ASSAY - IC50) is above 10 µM.
Take `COc1cnc(-c2ccccn2)nc1SCc1ccccc1`: the IC90 was above 10.7 µM. Further, under setting [1], the IC50 turned out to be 9.29 µM.
With `N#Cc1ccc(CN2CCN(c3ccc(-c4nc5ccccc5[nH]4)cn3)CC2)cc1`, the IC90 was above 10 µM. Also, the IC50 under setting [1] is above 10 µM.
`Cc1nn(CC(C)C)c(C)c1CC(=O)NCc1ccccc1Cn1cccn1`: the IC90 is above 10 µM. In addition, the IC50 under setting [1] is above 10 µM.
Take `C/N=c1\scc(-c2ccccc2OC)n1/N=C/c1ccc[nH]1`: the IC90 came to 0.0612 µM. Moreover, for the setting “PBLUC_HILL_SLOPE 6.06, PBLUC_R_SQUARED 0.259, read-out: LUCIFERASE INFECTION ASSAY - IC50”, the IC50 came out at 0.0426 µM.
On to `COc1ccc(-c2nnc(NC(=O)c3ccc(C)c(S(=O)(=O)N4CCCCC4)c3)[nH]2)cc1`, for which the IC90 was 6.51 µM. The IC50 (HEPG2TOX_HILL_SLOPE 2.01, HEPG2TOX_R_SQUARED 0.893, PBLUC_HILL_SLOPE 2.99, PBLUC_R_SQUARED 0.681, read-out: LUCIFERASE INFECTION ASSAY - IC50) worked out at 3.12 µM.
In the case of `Cc1cc(C(=O)OCc2ccc(-n3nc(C)cc3C)cc2)c2ccccc2n1`, the IC90 came out at 4.21 µM. Further, the IC50 (HEPG2TOX_HILL_SLOPE 1.96, HEPG2TOX_R_SQUARED 0.0908, PBLUC_HILL_SLOPE 15.9, PBLUC_R_SQUARED 0.28, read-out: LUCIFERASE INFECTION ASSAY - IC50) was found to be 3.66 µM.
Regarding `CSc1ccccc1NC(=O)CN1CCN(C(c2ccccc2)c2ccccc2)CC1`, the IC90 stood at 6.36 µM. Moreover, where the note is “HEPG2TOX_HILL_SLOPE 7.79, HEPG2TOX_R_SQUARED 0.752, PBLUC_HILL_SLOPE 3.88, PBLUC_R_SQUARED 0.663, read-out: LUCIFERASE INFECTION ASSAY - IC50”, the IC50 stood at 3.61 µM.
In the case of `Cc1[nH]c2ccccc2c1C(=O)C(=O)Nc1ccc(N2CCCCC2)nc1`, the IC90 was 9.82 µM. The IC50 (PBLUC_HILL_SLOPE 5.45, PBLUC_R_SQUARED 0.664, read-out: LUCIFERASE INFECTION ASSAY - IC50) worked out at 6.56 µM.
`Cc1ccc(-c2nc(C(=O)NCCCN(C)C)cc3c2[nH]c2ccccc23)cc1`: the IC90 was above 8.54 µM. In addition, under setting [1], the IC50 was above 8.54 µM.
On to `Cn1c(-c2cccnc2)cc2cnc(Nc3ccc(OC(F)(F)F)cc3)cc21`, for which the IC90 was found to be 9.47 µM. Also, the IC50 (HEPG2TOX_HILL_SLOPE 2.53, HEPG2TOX_R_SQUARED 0.903, PBLUC_HILL_SLOPE 4.19, PBLUC_R_SQUARED 0.443, read-out: LUCIFERASE INFECTION ASSAY - IC50) is 5.61 µM.
Turning to `FC(F)Oc1ccc(-c2csc(COc3ccc(C4SCCS4)cc3)n2)cc1`, the IC90 is above 7.54 µM. In addition, the IC50 under setting [1] was 3.7 µM.
Regarding `Cc1nc(SCC(=O)N2CCC(c3nc4ccccc4o3)CC2)c2c(C)c(C)sc2n1`, the IC90 was above 10 µM. Besides, under setting [1], the IC50 is above 10 µM.
For `Cn1c(Nc2cccc(C(F)(F)F)c2)nc2cnc(-c3ccc(N)nc3)cc21`, the IC90 was above 10 µM. The IC50 (PBLUC_HILL_SLOPE 1.84, PBLUC_R_SQUARED 0.0919, read-out: LUCIFERASE INFECTION ASSAY - IC50) is above 10 µM.
Take `CCOC(=O)c1c(C)[nH]c(/C=C2/C(=O)N(c3ccccc3)N=C2C)c1Cc1cccc(Cl)c1`: the IC90 is above 10 µM. The IC50 under setting [1] was above 10 µM.
Consider `O=C1CN(C(=O)COc2ccc(F)cc2Br)CCN1`, for which the concentration for an effect of 90% (IC90) is above 10 µM. Moreover, under setting [1], the IC50 was above 10 µM.
For the molecule `CC(OC(=O)C1CC1)C(=O)Nc1ccnn1C(C)C` (configuration not stated), the IC90 is above 10 µM. Besides, under setting [1], the IC50 was above 10 µM.
As for `FC(F)(F)c1ccnc(N2CCN(C(c3ccccc3)c3ccccc3)CC2)c1`, the IC90 is above 8.3 µM. In addition, the IC50 (PBLUC_HILL_SLOPE 1.54, PBLUC_R_SQUARED 0.0984, read-out: LUCIFERASE INFECTION ASSAY - IC50) is above 8.3 µM.
On to `CC(C)(C)c1nc2ccc(NC(=O)c3ccc(Cl)c(S(=O)(=O)NC4CC4)c3)cc2[nH]1`, for which the IC90 was above 10 µM. Besides, the IC50 (HEPG2TOX_HILL_SLOPE 8.98, HEPG2TOX_R_SQUARED 0.824, PBLUC_HILL_SLOPE 3.11, PBLUC_R_SQUARED 0.121, read-out: LUCIFERASE INFECTION ASSAY - IC50) was found to be 7.36 µM.
For `Fc1cccc(NC(=S)NC2CCCCCCCCCCC2)c1`, the IC90 came out at 4.49 µM. Also, the IC50 (HEPG2TOX_HILL_SLOPE 19.2, HEPG2TOX_R_SQUARED 0.924, PBLUC_HILL_SLOPE 9.11, PBLUC_R_SQUARED 0.436, read-out: LUCIFERASE INFECTION ASSAY - IC50) came to 3.53 µM.
As for `Cc1cc(-c2nc3c(c(=O)[nH]c(=O)n3Cc3ccccc3)n2CC2CCCO2)cc(C)c1O` (configuration not stated), the IC90 was above 10 µM. For the same molecule, under setting [1], the IC50 is above 10 µM.
In the case of `NC(/C=C/c1cc(C(F)(F)F)cc(C(F)(F)F)c1)=N\O`, the IC90 was above 11.1 µM. The IC50 under setting [1] was above 11.1 µM.
`Nc1ccc(-c2cn3c(-c4cccc(OC(F)(F)F)c4)cnc3cn2)cn1`: the IC90 stood at 4.23 µM. For the same molecule, the IC50 (PBLUC_HILL_SLOPE 9.99, PBLUC_R_SQUARED 0.381, read-out: LUCIFERASE INFECTION ASSAY - IC50) is 3.39 µM.
As for `FC(F)(F)c1nc2ccccc2c2nnc(-c3ccc(Cl)cc3)n12`, the IC90 is 3.88 µM. Also, the IC50 (HEPG2TOX_HILL_SLOPE 3.1, HEPG2TOX_R_SQUARED 0.959, PBLUC_HILL_SLOPE 22, PBLUC_R_SQUARED 0.45, read-out: LUCIFERASE INFECTION ASSAY - IC50) was 3.51 µM.
Consider `Cc1nn(-c2ccccc2)c2sc(-c3[nH]nc(-c4ccccc4)c3-c3nc4ccccc4[nH]3)cc12`, for which the IC90 was found to be 7.66 µM. Also, for the setting “FFLUC_HILL_SLOPE 1.87, FFLUC_R_SQUARED 0.663, HEPG2TOX_HILL_SLOPE 0.372, HEPG2TOX_R_SQUARED 0.356, PBLUC_HILL_SLOPE 1.24, PBLUC_R_SQUARED 0.688, read-out: LUCIFERASE INFECTION ASSAY - IC50”, the IC50 came out at 1.3 µM.
`CCOC(=O)c1sc(SCc2ccccc2)c(S(=O)(=O)C(C)C)c1N`: the 90% effect concentration (IC90) is above 8.26 µM. Moreover, the IC50 under setting [1] is above 8.26 µM.
Regarding `COC(=O)c1scc(C)c1N1C(=O)C=CC1=O`, the concentration for an effect of 90% (IC90) is above 13.1 µM. The IC50 (PBLUC_HILL_SLOPE 9.1, PBLUC_R_SQUARED 0.327, read-out: LUCIFERASE INFECTION ASSAY - IC50) is above 13.1 µM.
On to `Cc1cc(C)c2c(=O)cc(C(=O)Nc3cccnc3)oc2c1`, for which the IC90 is 4.06 µM. In addition, for the setting “HEPG2TOX_HILL_SLOPE 1.93, HEPG2TOX_R_SQUARED 0.965, PBLUC_HILL_SLOPE 5.85, PBLUC_R_SQUARED 0.609, read-out: LUCIFERASE INFECTION ASSAY - IC50”, the IC50 was 2.79 µM.
Turning to `CC(C)(C)c1ccc(-c2ccc(OCCN3CCOCC3)nc2)cc1`, the IC90 was above 9.69 µM. Also, the IC50 (HEPG2TOX_HILL_SLOPE 2.33, HEPG2TOX_R_SQUARED 0.966, PBLUC_HILL_SLOPE 2.69, PBLUC_R_SQUARED 0.584, read-out: LUCIFERASE INFECTION ASSAY - IC50) is 4.35 µM.
`O=S(=O)(Nc1ccc(OC(F)F)c(Cl)c1)c1ccc(Cl)c(Cl)c1`: the IC90 was above 10 µM. The IC50 under setting [1] is above 10 µM.
Turning to `C[C@H]1O[C@@H](O[C@H]2[C@@H](O)C[C@H](O[C@H]3[C@@H](O)C[C@H](O[C@H]4CC[C@@]5(C)[C@H](CC[C@@H]6[C@@H]5C[C@@H](O)[C@]5(C)[C@@H](C7=CC(=O)OC7)CC[C@]65O)C4)O[C@@H]3C)O[C@@H]2C)C[C@H](O)[C@@H]1O` [DIGOXIN], the IC90 was determined as 0.117 µM. The IC50 under setting [1] came out at 0.0489 µM.
For `Oc1cc(OCCN2CCCCC2)ccc1-c1n[nH]cc1-c1ccccc1`, in that order: above 9.08 µM and above 9.08 µM.
As to `Cc1cccc(-c2nn(-c3ccccc3)cc2/C=C/C(=O)c2c(C)[nH]c(=O)[nH]c2=O)c1`, the IC90 was above 10 µM. Besides, the IC50 (PBLUC_HILL_SLOPE 3.1, PBLUC_R_SQUARED 0.412, read-out: LUCIFERASE INFECTION ASSAY - IC50) came out at 5.95 µM.
In the case of `CCN(CC)c1ncnc2c1oc1nc(CC(C)C)c3c(c12)CCC3`, the IC90 is above 9.75 µM. In addition, the IC50 under setting [1] is above 9.75 µM.
As for `CCOC(=O)c1nnsc1[S+]([O-])c1ccc(Cl)cc1` (configuration not stated), the IC90 was above 10.4 µM. Under setting [1], the IC50 is above 10.4 µM.

As usually defined, the IC50 is the concentration that gives 50% inhibition. Usually IC90 stands for the concentration needed for an effect of 90%.
